The record followed here is patent US6482799B1, “Self-preserving multipurpose ophthalmic solutions incorporating a polypeptide antimicrobial” (The Regents of the University of California, priority 1999, dated 2002).

A short description of series [1]: Toxicity study, topical ocular administration. As for the experimental part:
The objective of this study was to determine if the treatment regimen proposed for the efficacy study of the defensin formulations caused target organ toxicity. This study is not intended to support application for research or marketing permits for products regulated by governmental agencies. The purpose of this study is to provide range-finding data is therefore, not within the scope of Good Laboratory Practice Guidelines.
Rabbits were treated four times on Day 1 at ˜1 hour intervals, and twice daily at ˜12 hour intervals administered on Days 2 through 4.
Dosing volumes were 0.1 mL/mouse (intravaginal), 0.1 mL/mouse (intraperitoneal), and 20 μL/rabbit. The study lasted 5 days, with day 1 the first day of dose administration.
The dose formulations were supplied in pyrogen-free saline.

In series [2] the test system is Staphylococcus aureus (ATCC 6538). The series can be described thus: Short-term (14 day) stability in commercial plastic container (RENU) by S. aureus bioassay. It counts as cell-based. The settings on record: for stability of antimicrobial activity: room temperature, plastic container. The text has this:
The objective of this study was to determine if there is significant and rapid binding of L-IND to a typical plastic bottle such as the type to be used to store, ship and use the lens-care solution. The 2-week study reported here was a range-finding task to determine if there was substantial binding and incompatibility, and its results helped plan a more extensive stability study over a period of 8 months.
The two commercial containers were used that previously contained the commercial product RENU®, a multi-purpose solution for all soft contact lenses not requiring enzymatic cleaning, and manufactured by Bausch & Lomb. These containers hold a volume of 89 ml and came with a dispenser that precludes the removal of the cap, which aids in keeping the solution sterile. The lot number of the RENU® lens-care solutions used was GE7089, having an expiration date of May 1999.
The containers were prepared for the L-IND stability study by discarding the RENU® lens care solution, and by rinsing, 3 times with either sterile 10 mM sodium phosphate buffer (SP), pH 7.4 or 10 mM SP supplemented with 0.85 % (w/v) sodium chloride (SP+NaCl).
The test article, L-IND peptide solution, was prepared fresh from dry L-IND powder (Lot #036752). Two solutions were prepared for evaluation, to a final concentration of 50 μg/ml in 50 ml of 10 mM SP and 10 mM SP+NaCl. For this purpose a stock solution was prepared by weighing out 5 mg of L-IND and dissolving it in 10 ml of 0.01% acetic acid in a pyrogen free sterile Teflon container. A 10-fold dilution of this stock was then made by transferring 5 ml of the stock solution to each of the containers to which was then added 45 ml of either 10 mM SP or 10 mM SP+NaCl. After mixing by slowly shaking, the solutions were maintained at room temperature for the duration of the study.
It should be noted that the 5 ml of the L-IND stock solution was added to the empty containers. This was followed by addition of 45 ml of the respective buffer systems. The addition of peptide concentrate to the empty containers would enhance binding of the peptide to the plastic. Had excessive binding resulted, a less stringent procedure of adding the peptide concentrate to bottles prefilled with buffer would have been adopted in subsequent experiments.
The stability of L-IND in each container was determined at times 0 h, 24 h, 48 h, 72 h, 7 d, 10 d and 14 d. At each sampling point, the contents of each of the two containers was shaken gently 3 times in a back and forth rocking motion. Three aliquots of about 1.5 ml of the solutions containing L-IND were removed. One aliquot was used immediately for determining the stability of L-IND by exposure to Staphylococcus aureus (see below). The other aliquots were stored in the freezer (−20° C.). One of these aliquots was kept until the end of the monitoring period, which was 14 days. At that time all the frozen samples were thawed and tested for stability of L-IND by bioassay.
Staphylococcus aureus (ATCC 6538) obtained directly from the American Type Culture Collection was the test organism. The bacterium was grown overnight at 37° C. in 5 ml of Mueller-Hinton (MH) broth on a shaking platform (180 rpm). The overnight culture was washed 2 times in sterile saline by centrifugation at 7,000 RPM. One half of the cells were then resuspended in 2.5 ml of sterile 10 mM SP, while the other half was resuspended in 2.5 ml of 10 mM SP+NaCl. Each washed culture was then diluted to give an estimated 10^7 colony-forming-units (CFU) per […].
S. aureus was exposed at room temperature to each of the samples, removed at the different time points, for 0, 15 and 60 minutes, and for 4 hours. For this purpose 0.25 ml of each L-IND solution was dispensed into wells of a 96-well polypropylene titer plate. A volume of 20 μl of the 10× washed bacterial suspension was then added to each well. The estimated cell density thus obtained per well was about 10^6 CFU/ml. […]

Consider `CC[C@H](C)[C@H](N)C(=O)N[C@@H](CC(C)C)C(=O)N1CCC[C@H]1C(=O)N[C@@H](Cc1c[nH]c2ccccc12)C(=O)N[C@@H](CCCCN)C(=O)N[C@@H](Cc1c[nH]c2ccccc12)C(=O)N1CCC[C@H]1C(=O)N[C@@H](Cc1c[nH]c2ccccc12)C(=O)N[C@@H](Cc1c[nH]c2ccccc12)C(=O)N1CCC[C@H]1C(=O)N[C@@H](Cc1c[nH]c2ccccc12)C(=O)N[C@@H](CCCNC(=N)N)C(=O)N[C@@H](CCCNC(=N)N)C(N)=O` [L-indolicidin, H2N-ILPWKWPWWPWRR-CONH2], for which the “deaths or clinical signs of toxicity” value in series [1] (10, 100 or 1000 μg/mL, BPN-A-amide 30, 300 or 3000 μg/mL) is “No deaths or biologically significant clinical signs of toxicity”. Also, in series [1] (20 μL/rabbit at 10, 100 or 1000 μg/mL, BPN-A-amide at 30, 300 or 3000 μ/mL), the “toxic changes in rabbit eyes (histology)” value is listed as “No toxic changes”. Moreover, the “stability of antimicrobial activity” value is “stable” in series [2] (50 μg/ml in 10 mM SP+NaCl (0.85%), 14 days) and “stable” in series [2] (50 μg/ml in 10 mM SP, 14 days). For the same compound, the “adsorption to the plastic container” value in series [2] (50 μg/ml, 14 days) is “no obvious or dramatic adsorption”. For the same compound, the log kill entry is reported as “about 1.5 log” in series [2] (50 μg/ml, frozen samples, 10 mM SP+NaCl, 4 hours exposure); 6 log in series [2] (50 μg/ml, frozen, 10 mM SP, 60 minute exposure); about 1 log in series [2] (50 μg/ml, unfrozen, 10 mM SP+NaCl (0.85%), 4 hours exposure); 4 log in series [2] (50 μg/ml, unfrozen, 10 mM SP, 4 hours exposure).
